{"source": "patent US9226912B2", "about": "“Acetyltanshinone IIA (ATA) as anticancer agent” (Nanyang Technological University, priority 2011, dated 2016)", "key": {"[1]": {"system": "MCF-7/HER2 cells", "experiment": "Growth inhibition of HER2 over-expressing cells at 72 h", "format": "cell-based", "conditions": "paclitaxel 1×10^−3 μM to 10 μM; ATA 0.78 μM to 6.25 μM", "excerpt": "The efficacy of ATA on MCF-7 cells with over-expressed HER2 protein was investigated."}, "[2]": {"system": "MCF-7 cells", "experiment": "Combinatorial effect of ATA with paclitaxel, MTT assay", "format": "cell-based", "conditions": "Homo sapiens, MCF7, paclitaxel alone at 1 nM, read-out: cell growth inhibition rate", "description": "The effect was determined by measuring the rates of cell growth inhibition using MTT assay. (* p<0.01, compared with cells treated with either paclitaxel alone or ATA alone).\nThe inventors of the present invention have shown for the first time that ATA can increase the cytotoxic effect of paclitaxel. In the tests (FIG. 16) with five concentrations of ATA at 10, 5, 2.5, 1.25, 0.625 μM and five concentrations of paclitaxel at 1000, 100, 10, 1, 0.1 nM were used."}, "[3]": {"biological_target": "T1, ERα in BT474 cells (Homo sapiens, UniProt P03372)", "T1 construct": "endogenous in cells; host or cells: BT474 human breast cancer cells", "T1 sequence (P03372 whole entry)": "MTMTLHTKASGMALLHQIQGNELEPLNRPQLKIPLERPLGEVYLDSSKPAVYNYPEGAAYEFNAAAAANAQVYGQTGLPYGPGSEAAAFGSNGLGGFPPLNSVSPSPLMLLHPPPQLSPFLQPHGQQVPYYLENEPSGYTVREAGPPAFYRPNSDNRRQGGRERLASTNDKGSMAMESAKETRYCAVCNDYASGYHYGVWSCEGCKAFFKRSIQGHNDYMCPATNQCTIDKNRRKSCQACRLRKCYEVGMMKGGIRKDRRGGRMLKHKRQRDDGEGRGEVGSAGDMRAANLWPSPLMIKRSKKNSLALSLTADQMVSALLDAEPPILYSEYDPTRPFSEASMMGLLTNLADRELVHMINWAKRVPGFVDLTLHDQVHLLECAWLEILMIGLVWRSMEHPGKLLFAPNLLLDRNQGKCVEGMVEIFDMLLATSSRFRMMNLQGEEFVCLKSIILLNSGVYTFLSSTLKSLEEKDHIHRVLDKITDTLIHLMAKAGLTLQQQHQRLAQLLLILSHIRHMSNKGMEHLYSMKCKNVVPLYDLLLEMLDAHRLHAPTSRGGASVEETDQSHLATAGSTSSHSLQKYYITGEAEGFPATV", "experiment": "ERα protein level by Western blotting", "format": "cell-based", "conditions": "6 μM ATA or 1 μM fulvestrant", "description": "Cells were treated with 6 μM ATA or 1 μM fulvestrant for indicated times and analyzed by Western blotting."}, "[4]": {"system": "Bax and cytochrome c in MDA-MB-435 cells", "experiment": "Bax translocation and cytochrome c release, cell fractionation Western blot and immunofluorescence", "format": "cell-based, human", "conditions": "20 μM PG, 5 μM ATA, 24 h", "description": "The concentration of ATA and PG were 5 μM and 20 μM, respectively. […] Scale bar=10 μm.\nThe value of CY/MT represents the ratio of integrated band intensity of cytosol fraction (CY) over corresponding integrated band intensity of mitochondrial fraction (MT). The ratio was normalized by the control group. Two proteins were used as internal markers to judge the quality of cell fractionation experiment: Cox IV for mitochondria and β-tubulin mainly for cytosol.\nThe subcellular localization changes of Bax and cytochrome c during ATA-induced apoptosis were first examined using immunofluorescence staining.\n(§1) It was further tested, whether PG could prevent ROS generation after ATA treatment."}, "[5]": {"system": "ROS in MDA-MB-435 cells", "experiment": "ROS generation and its prevention by PG", "format": "cell-based, human", "conditions": "pre-treating cells with 20 μM PG", "description": "(A) PG prevented ATA-induced cell death. Three concentrations of PG were tested for their protective effects on ATA-induced cell death. The cell viability was measured by SRB assay. (* p<0.01). (B) PG protected ROS generation caused by ATA treatment. […] All the experiments were performed at least three times. The results presented in this figure are the average of three experiments. Error bar represents standard deviation. Scale bar=20 μm.\nas §1"}, "[6]": {"system": "GREB1 mRNA in MCF-7 cells", "experiment": "Real-time PCR of GREB1 mRNA level", "conditions": "100 pM estrogen plus 6 μM compound, 24 h, normal medium", "procedure": "In order to do so, the mRNA level of a non-ER regulated gene GAPDH was measured and used as a reference. MCF-7 cells cultured in the charcoal-stripped medium were used as a control."}, "[7]": {"system": "ESR1 mRNA in MCF-7 cells", "experiment": "Real-time PCR of ESR1 mRNA level", "conditions": "100 pM estrogen plus 6 μM compound, 24 h", "procedure": "MCF-7 cells cultured in the charcoal-stripped medium were used as control for the 0 h sample."}, "[8]": {"system": "HeLa cells", "experiment": "ATA-induced cell death by cell counting under a microscope", "format": "cell-based", "conditions": "2 μM z-VAD-fmk pre-treatment 2 h, then 10 or 20 μM ATA, 24 h and 48 h", "description": "HeLa cells were treated with 10 μM ATA for 12, 24, 36, and 48 h. The β-tubulin protein was probed as a loading control. […] HeLa cells were pre-treated with 2 μM pan-caspase inhibitor (z-VAD-fmk) for 2 h before ATA addition. Then 10 μM or 20 μM ATA were added. After 24 h and 48 h treatment, the number of died cells was counted under a microscope. (* p<0.01, compared with cells treated with ATA only). Control: cells without any treatment.\nOverexpression of Bcl-2 inhibited ATA-induced cell death. HeLa cells transfected with either yellow fluorescent protein (YFP) (vector control) or YFP-Bcl-2 (Bcl-2) were treated with ATA at 10 or 20 μM. The percentage of cell death from YFP-positive cells was determined by cell counting under a fluorescence microscope. (* p<0.01, compared with vector control groups).\nThe inventors of the present invention have shown for the first time that ATA can activate the apoptotic pathway in cancer cells. […]\nHeLa cells transfected with YFP-Bcl-2 or YFP only were treated with 10 μM or 20 μM ATA. After 24 h or 48 h treatment, the percentage of cell death in each sample was calculated by counting the numbers of fluorescence-positive cells either live (attached with a normal cell morphology) or dead (detached with a shrunk morphology) under a fluorescence microscope. […]"}}, "data": [{"molecule": "CC(=O)O[C@H]1C(=O)[C@@]2(C)[C@H]([C@H](OC(=O)c3ccccc3)[C@]3(O)C[C@H](OC(=O)[C@H](O)[C@@H](NC(=O)c4ccccc4)c4ccccc4)C(C)=C1C3(C)C)[C@]1(OC(C)=O)CO[C@@H]1C[C@@H]2O", "note": "[paclitaxel, reference compound]", "values": [{"measurement": "sensitivity of MCF-7/HER2 cells compared with MCF-7 cells", "setting": "[1]", "value": "more resistance to paclitaxel than MCF-7 cells"}, {"measurement": "inhibition at 0.001 µM", "setting": "[2]", "value": "~40", "unit": "%"}]}, {"molecule": "C[C@]12CC[C@@H]3c4ccc(O)cc4C[C@@H](CCCCCCCCC[S+]([O-])CCCC(F)(F)C(F)(F)F)[C@H]3[C@@H]1CC[C@@H]2O", "note": "(stereo partly drawn) [Fulvestrant, fulvestrant, reference compound]", "values": [{"measurement": "level of ERα", "setting": "[3]", "value": "only reduced ERα"}]}, {"molecule": "CCCOC(=O)c1cc(O)c(O)c(O)c1", "note": "[PG, propyl gallate, reference compound]", "values": [{"measurement": "effect on Bax translocation and cytochrome c release in ATA-treated cells", "setting": "[4]", "value": "could effectively prevent"}, {"measurement": "effect on ATA-induced ROS level increase", "setting": "[5]", "value": "completely prevented"}]}, {"molecule": "CC/C(=C(\\c1ccccc1)c1ccc(OCCN(C)C)cc1)c1ccccc1", "note": "[tamoxifen, reference compound]", "values": [{"measurement": "GREB1 level of the control", "setting": "[6]", "value": "comparable"}, {"measurement": "level of ESR1 mRNA over control", "setting": "[7]; charcoal-stripped medium", "value": "about 70%"}, {"measurement": "level of ESR1 mRNA over control", "setting": "[7]; normal medium", "value": "only slightly decreased"}]}, {"molecule": "z-VAD-fmk [reference compound]", "values": [{"measurement": "effect on ATA-induced cell death", "setting": "[8]", "value": "could be inhibited"}]}]}
